Data: ChEMBL document CHEMBL1201862, “PubChem BioAssay data set” (2004)
Active and inactive are the calls of the source.

Legend:
[1] = molecular target: Prothrombin (Homo sapiens, UniProt P00734); experiment: Thrombin 1536 HTS Dose Response Confirmation. [Related pubchem assays: 1046 (Thrombin 1536 HTS; hits were confirmed in this assay)]; format: functional
[2] = molecular target: Cytochrome P450 2C9 (Homo sapiens, UniProt P11712)
[3] = molecular target: T1, Caspase-6 (Homo sapiens, UniProt P55212); experiment: human caspase-6 inhibitors, dose response, biochemical, VEID-R110 fluorescence, cherry-pick (AID 720632)
T1 sequence (P55212 whole entry): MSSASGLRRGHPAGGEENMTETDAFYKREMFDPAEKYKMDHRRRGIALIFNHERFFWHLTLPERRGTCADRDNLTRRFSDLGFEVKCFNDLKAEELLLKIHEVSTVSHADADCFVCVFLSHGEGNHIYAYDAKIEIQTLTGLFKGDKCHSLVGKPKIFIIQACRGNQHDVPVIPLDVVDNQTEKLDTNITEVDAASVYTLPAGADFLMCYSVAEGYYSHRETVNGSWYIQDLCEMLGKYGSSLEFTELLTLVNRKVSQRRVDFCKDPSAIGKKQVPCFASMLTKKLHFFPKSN

[4] = Shn3 3'UTR reporter inhibitors, dose response, cell-based, Clone20 osteoblasts, firefly luciferase, cherry-picked (AID 624132); format: functional;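 note: firefly luciferase luminescence from reporter carrying the Shn3 3'UTR in osteoblasts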
[5] = HepG2 cell cytotoxicity, dose response, cytotoxicity control for Shn3 inhibitor project, CellTiter-Glo, cherry-picked (AID 624134); format: functional, cell-based
[6] = control 3'UTR Renilla luciferase suppression, dose response, counter-screen for Shn3 inhibitor project, cell-based, Clone20-Shn3RL, cherry-picked (AID 624133); format: functional
[7] = A549 cell cytotoxicity, dose response, cytotoxicity control, plate reader, cherry-pick, antagonist series (AID 743412); format: functional, cell-based
[8] = HepG2 cell cytotoxicity, dose response, cytotoxicity control, plate reader, cherry-pick, antagonist series (AID 743416); format: functional, cell-based
[9] = LGR2 antagonists, dose response, cell-based, HEK293, CRE-luciferase reporter, cherry pick, set 2 (AID 743343); format: functional;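 note: transfected cells were stimulated with diluted bursicon conditioned medium after compound addition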
[10] = MC4R antagonists, dose response, counter-screen for LGR2 antagonist project, cell-based, plate reader, cherry pick (AID 743444); format: functional;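 note: transfected HEK 293 cells stimulated with alpha-MSH peptide; potency of inhibitors of the alpha-MSH evoked signal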
[11] = HEK293 cell cytotoxicity, dose response, cytotoxicity control, plate reader, cherry-picked samples (AID 743446); format: functional, cell-based
[12] = molecular target: Induced myeloid leukemia cell differentiation protein Mcl-1 (Homo sapiens, UniProt Q07820); format: functional
Sequence of Induced myeloid leukemia cell differentiation protein Mcl-1 (Q07820 whole entry): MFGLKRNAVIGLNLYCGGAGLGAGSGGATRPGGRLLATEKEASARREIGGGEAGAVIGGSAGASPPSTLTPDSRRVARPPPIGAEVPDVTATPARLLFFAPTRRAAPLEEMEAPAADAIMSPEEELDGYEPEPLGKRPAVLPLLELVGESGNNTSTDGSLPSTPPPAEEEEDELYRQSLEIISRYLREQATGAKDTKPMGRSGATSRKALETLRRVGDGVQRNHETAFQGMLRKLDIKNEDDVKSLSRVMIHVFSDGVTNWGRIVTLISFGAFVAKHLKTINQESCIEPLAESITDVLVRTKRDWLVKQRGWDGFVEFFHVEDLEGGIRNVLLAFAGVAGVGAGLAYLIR

[13] = molecular target: Cytochrome P450 2C19 (Homo sapiens, UniProt P33261); experiment: Cytochrome panel assay with activity outcomes. Panel member name: p450-cyp2c19 Compounds with AC50 equal or less than 10 uM are considered active; format: functional; conditions: read-out: AC50
Sequence of Cytochrome P450 2C19 (P33261 whole entry): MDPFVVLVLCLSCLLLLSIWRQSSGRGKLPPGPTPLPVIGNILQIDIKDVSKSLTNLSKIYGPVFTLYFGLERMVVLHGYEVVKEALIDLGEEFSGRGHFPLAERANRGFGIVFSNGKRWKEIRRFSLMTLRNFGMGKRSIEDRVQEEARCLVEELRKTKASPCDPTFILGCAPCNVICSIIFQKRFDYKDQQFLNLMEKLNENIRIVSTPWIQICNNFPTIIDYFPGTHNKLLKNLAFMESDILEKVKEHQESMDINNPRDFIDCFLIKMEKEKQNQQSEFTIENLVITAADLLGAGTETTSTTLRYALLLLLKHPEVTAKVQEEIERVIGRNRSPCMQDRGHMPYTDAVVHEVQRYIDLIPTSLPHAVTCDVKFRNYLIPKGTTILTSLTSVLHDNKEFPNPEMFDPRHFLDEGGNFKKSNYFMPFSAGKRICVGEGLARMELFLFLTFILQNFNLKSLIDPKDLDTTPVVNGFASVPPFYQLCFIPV

[14] = inhibitors of firefly luciferase expression or activity, dose response, H4 neuroglioma cells, luminescence (AID 1990); format: functional, cell-based
[15] = Luminescence Cell-Based Dose Response HTS to Identify Inhibitors of 5'UTR Stem-Loop Driven Prion Protein mRNA Translation in H4 Neuroglioblastoma Cells. [Related pubchem assays: 1827 (Project Summary), 1813 (Primary HTS)]; format: functional
[16] = inhibitors of SNCA 5'UTR-driven reporter translation, confirmation, H4 neuroglioma cells, luminescence (AID 1988); format: functional, cell-based
[17] = molecular target: Large T antigen (Simian virus 40, UniProt P03070); format: functional, Betapolyomavirus macacae;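 note: Confirmatory-stage PubChem screen for compounds that inhibit SV40 T antigen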
Sequence of Large T antigen (P03070 whole entry): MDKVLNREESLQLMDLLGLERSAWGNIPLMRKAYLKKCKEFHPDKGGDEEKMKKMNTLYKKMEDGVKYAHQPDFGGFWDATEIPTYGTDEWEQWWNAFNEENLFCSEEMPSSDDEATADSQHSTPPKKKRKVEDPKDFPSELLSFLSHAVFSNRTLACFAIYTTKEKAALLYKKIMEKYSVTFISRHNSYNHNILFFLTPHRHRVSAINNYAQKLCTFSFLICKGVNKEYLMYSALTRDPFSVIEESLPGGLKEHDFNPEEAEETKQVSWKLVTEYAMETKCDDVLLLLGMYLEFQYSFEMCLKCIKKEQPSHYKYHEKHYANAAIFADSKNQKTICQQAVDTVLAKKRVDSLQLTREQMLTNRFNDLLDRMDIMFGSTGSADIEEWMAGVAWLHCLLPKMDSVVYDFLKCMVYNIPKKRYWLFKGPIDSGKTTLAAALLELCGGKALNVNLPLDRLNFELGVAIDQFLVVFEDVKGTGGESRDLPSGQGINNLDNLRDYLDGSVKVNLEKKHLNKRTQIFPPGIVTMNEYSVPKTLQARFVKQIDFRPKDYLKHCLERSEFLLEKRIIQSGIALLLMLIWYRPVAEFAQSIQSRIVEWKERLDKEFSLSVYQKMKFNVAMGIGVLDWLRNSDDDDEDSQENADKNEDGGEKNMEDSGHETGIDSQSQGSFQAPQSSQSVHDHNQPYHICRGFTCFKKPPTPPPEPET

[18] = molecular target: FAD-linked sulfhydryl oxidase ALR (Homo sapiens, UniProt P55789); experiment: inhibitors of human ALR sulfhydryl oxidase, dose response, biochemical, H2O2 detection, luminescence, cherry-pick (AID 493248)
Sequence of FAD-linked sulfhydryl oxidase ALR (P55789 whole entry): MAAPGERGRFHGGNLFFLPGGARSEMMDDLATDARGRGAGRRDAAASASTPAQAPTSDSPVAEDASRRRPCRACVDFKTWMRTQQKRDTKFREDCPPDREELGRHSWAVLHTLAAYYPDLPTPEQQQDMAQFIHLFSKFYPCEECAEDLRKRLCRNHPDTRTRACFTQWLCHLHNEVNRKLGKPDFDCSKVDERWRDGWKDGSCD

[19] = molecular target: T2, Calpain-2 catalytic subunit (Sus scrofa, UniProt P43367); experiment: pig calpain II inhibitor potency, dose response, biochemical, fluorogenic peptide substrate (AID 1420); format: functional
T2 sequence (P43367 whole entry): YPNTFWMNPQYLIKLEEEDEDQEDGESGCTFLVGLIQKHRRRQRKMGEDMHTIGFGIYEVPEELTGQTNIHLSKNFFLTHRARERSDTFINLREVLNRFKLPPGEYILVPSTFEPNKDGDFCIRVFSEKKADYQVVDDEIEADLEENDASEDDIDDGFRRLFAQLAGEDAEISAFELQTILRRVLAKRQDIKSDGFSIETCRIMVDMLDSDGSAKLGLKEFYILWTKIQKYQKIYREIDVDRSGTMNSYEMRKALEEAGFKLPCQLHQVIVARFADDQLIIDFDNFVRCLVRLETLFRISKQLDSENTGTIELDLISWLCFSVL

Sequence of Cytochrome P450 2C9 (P11712 whole entry): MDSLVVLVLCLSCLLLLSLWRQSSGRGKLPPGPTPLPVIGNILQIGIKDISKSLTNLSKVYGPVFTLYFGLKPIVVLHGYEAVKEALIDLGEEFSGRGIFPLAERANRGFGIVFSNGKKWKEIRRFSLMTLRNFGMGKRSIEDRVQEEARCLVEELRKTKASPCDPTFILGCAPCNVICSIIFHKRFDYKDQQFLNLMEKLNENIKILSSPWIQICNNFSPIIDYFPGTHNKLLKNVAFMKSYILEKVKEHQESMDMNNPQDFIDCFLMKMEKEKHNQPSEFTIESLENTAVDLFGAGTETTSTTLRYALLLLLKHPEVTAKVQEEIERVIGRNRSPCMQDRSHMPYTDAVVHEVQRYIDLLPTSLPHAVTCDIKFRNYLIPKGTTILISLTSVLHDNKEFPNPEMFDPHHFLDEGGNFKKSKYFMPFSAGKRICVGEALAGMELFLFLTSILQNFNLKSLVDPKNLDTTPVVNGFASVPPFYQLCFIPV

For `CC(=O)n1nc(-c2ccc(C)cc2)nc1NCc1ccc(F)cc1`, the IC50 [1] was 0.373 µM (active).
In the case of `COc1ccc(C(=O)n2nc(-c3ccccc3)nc2SC)cc1`, the IC50 [1] is reported as 0.913 µM (active) and the AC50 [2] is reported as 0.141 µM (inconclusive).
For `O=C(O)c1ccc(N=Nc2c(O)[nH]c3cc(Cl)ccc23)cc1`, the AC50 [3] was 49.4 µM (active).
With `Cc1cccc(C)c1-n1nnnc1C(c1cc2ccccc2o1)N1CCC(n2c(O)nc3ccccc32)CC1` (stereo unspecified) the AC50 [4] was 3.05 µM (active), the AC50 [5] was 2.97 µM (active) and the AC50 [6] was 4.09 µM (active). The AC50 [7] was 6.22 µM (active), the AC50 [8] was 1.98 µM (active) and the AC50 [9] was 3.43 µM (active). For the same molecule, the AC50 [10] was 3.33 µM (active) and the AC50 [11] was 4.96 µM (active).
With `Oc1ccccc1C1Nc2cccc3cccc(c23)N1` the IC50 [12] was 3.25 µM (active) and the AC50 [13] was 3.16 µM (inconclusive).
In the case of `Nc1ccc(OC(=O)Nc2ccc(O)cc2)cc1`, the EC50 [14] is reported as 11.2 µM (active), the EC50 [15] is reported as 11.7 µM (active) and the EC50 [16] is reported as 9.76 µM (active). The IC50 [17] was 6.52 µM (active), the AC50 [18] was 1.38 µM (active) and the AC50 [3] was 18.7 µM (active).
In the case of `COc1cc(/C=C2\SC(=S)N(CC(=O)O)C2=O)ccc1OS(=O)(=O)c1ccc(C)cc1`, the AC50 [18] is reported as 2.07 µM (active) and the AC50 [3] is reported as 46.2 µM (active).
With `Cc1ccccc1NC(=S)NCCC(c1ccccc1)c1ccccc1` the IC50 [19] was 2.48 µM (not active).
In the case of `COCC(=O)n1nc(-c2ccc(C)cc2)nc1NCc1ccc(F)cc1`, the IC50 [1] is reported as 0.502 µM (active).
In the case of `CCc1nn2c(=O)cc(COc3ccc(/C=C4\C(=N)N5N=C(C)SC5=NC4=O)cc3)nc2s1`, the IC50 [12] is reported as 4.66 µM (active).
With `Cc1ccc(NC(S)=NC(C)CCc2ccccc2)cc1C` (stereo unspecified) the IC50 [19] was 17.3 µM (not active).
